Here are results for 12 compounds from US20230139171A1 (SITA Information Networking Computing UK Limited, priority 2019, published 2023).

Holding throughout (format): cell-based
The target in test [1] is T1, human TLR9 (Homo sapiens, UniProt Q9NR96).
T1 construct: host or cells: HEK-Blue cells
T1 sequence (Q9NR96 26-1032): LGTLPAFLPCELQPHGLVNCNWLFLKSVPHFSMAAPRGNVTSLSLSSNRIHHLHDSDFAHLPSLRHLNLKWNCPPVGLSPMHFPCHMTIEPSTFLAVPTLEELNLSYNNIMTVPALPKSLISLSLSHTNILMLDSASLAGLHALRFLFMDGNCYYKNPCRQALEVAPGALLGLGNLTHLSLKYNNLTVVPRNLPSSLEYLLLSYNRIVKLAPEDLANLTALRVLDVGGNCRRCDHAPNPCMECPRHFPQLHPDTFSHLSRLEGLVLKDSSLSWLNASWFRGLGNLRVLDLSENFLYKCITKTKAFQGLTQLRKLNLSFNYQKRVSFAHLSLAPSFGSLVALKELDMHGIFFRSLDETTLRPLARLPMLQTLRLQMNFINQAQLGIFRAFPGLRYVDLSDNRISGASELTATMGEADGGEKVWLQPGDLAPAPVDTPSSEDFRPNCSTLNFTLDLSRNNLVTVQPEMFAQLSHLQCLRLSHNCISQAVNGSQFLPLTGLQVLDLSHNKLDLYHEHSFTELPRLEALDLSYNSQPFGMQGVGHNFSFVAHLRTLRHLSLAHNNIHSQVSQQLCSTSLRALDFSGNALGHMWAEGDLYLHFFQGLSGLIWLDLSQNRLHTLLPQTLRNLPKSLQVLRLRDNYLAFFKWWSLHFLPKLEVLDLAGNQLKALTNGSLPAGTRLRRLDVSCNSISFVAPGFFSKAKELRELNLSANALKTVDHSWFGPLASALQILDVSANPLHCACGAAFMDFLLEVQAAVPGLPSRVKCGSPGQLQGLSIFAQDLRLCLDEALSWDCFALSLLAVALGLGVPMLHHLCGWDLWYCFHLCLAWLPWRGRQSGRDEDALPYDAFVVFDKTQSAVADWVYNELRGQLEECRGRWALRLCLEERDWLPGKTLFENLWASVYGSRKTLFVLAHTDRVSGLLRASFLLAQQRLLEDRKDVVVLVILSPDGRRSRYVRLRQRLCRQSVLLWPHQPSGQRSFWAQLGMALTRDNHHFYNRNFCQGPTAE
The test is described as follows: TLR9 inhibition reporter assay (HEK-Blue cells, SEAP reporter, ODN2006 stimulation). To be noted: HEK-Blue cells overexpressing human TLR9, SEAP reporter, ODN2006 5 nM. Put shortly:
(§1)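 Dose–response from 0.05 nM to 50 μM was run in HEK-Blue human TLR7, TLR8 and TLR9 reporter cells. After 30 min at room temperature with compound, ligand was added (TLR7 gardiquimod 7.5 μM; TLR8 R848 15.9 μM; TLR9 ODN2006 5 nM) and SEAP measured next day, at 22 h.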
(In general: In a reporter assay the amount or activity of a reporter protein is the signal.)

Test [2] deals with T2, human TLR7 (Homo sapiens, UniProt Q9NYK1).
T2 construct: host or cells: HEK-Blue cells
T2 sequence (Q9NYK1 27-1049): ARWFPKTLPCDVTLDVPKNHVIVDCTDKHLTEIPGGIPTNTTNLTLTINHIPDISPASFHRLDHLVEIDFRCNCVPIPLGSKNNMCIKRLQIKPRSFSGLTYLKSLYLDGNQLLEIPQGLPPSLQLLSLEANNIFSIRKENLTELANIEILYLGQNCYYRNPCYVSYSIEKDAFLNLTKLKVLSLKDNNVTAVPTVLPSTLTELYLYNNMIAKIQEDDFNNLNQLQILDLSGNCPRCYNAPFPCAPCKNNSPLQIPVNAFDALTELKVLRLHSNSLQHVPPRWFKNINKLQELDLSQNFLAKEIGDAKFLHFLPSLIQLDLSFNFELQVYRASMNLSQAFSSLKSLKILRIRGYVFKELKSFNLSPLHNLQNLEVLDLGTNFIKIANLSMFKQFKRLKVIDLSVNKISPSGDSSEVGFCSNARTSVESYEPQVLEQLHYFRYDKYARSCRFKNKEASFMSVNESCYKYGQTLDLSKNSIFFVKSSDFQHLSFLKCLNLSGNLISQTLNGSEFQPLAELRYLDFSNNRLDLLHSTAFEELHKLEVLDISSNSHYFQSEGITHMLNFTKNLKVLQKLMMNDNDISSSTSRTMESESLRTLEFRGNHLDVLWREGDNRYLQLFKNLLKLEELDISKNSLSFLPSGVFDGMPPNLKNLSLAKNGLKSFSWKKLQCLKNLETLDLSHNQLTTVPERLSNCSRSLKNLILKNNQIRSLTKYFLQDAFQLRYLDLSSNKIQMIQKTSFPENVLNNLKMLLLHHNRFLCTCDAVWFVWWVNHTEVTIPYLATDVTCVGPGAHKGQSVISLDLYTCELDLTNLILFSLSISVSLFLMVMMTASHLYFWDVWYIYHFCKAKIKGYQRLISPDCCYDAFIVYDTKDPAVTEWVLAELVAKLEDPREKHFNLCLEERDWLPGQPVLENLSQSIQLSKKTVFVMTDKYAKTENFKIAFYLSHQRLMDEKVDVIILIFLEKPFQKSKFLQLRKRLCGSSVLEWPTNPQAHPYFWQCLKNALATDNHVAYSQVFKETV
As to the kind of experiment: TLR7 inhibition reporter assay (HEK-Blue cells, SEAP reporter, gardiquimod stimulation). To be noted: HEK-Blue cells overexpressing human TLR7, SEAP reporter, gardiquimod 7.5 μM; read-out: TLR7 IC50. Put shortly: as §1

Test [3] has as its target T3, human TLR8 (Homo sapiens, UniProt Q9NR97).
T3 construct: host or cells: HEK-Blue cells
T3 sequence (Q9NR97 27-1041): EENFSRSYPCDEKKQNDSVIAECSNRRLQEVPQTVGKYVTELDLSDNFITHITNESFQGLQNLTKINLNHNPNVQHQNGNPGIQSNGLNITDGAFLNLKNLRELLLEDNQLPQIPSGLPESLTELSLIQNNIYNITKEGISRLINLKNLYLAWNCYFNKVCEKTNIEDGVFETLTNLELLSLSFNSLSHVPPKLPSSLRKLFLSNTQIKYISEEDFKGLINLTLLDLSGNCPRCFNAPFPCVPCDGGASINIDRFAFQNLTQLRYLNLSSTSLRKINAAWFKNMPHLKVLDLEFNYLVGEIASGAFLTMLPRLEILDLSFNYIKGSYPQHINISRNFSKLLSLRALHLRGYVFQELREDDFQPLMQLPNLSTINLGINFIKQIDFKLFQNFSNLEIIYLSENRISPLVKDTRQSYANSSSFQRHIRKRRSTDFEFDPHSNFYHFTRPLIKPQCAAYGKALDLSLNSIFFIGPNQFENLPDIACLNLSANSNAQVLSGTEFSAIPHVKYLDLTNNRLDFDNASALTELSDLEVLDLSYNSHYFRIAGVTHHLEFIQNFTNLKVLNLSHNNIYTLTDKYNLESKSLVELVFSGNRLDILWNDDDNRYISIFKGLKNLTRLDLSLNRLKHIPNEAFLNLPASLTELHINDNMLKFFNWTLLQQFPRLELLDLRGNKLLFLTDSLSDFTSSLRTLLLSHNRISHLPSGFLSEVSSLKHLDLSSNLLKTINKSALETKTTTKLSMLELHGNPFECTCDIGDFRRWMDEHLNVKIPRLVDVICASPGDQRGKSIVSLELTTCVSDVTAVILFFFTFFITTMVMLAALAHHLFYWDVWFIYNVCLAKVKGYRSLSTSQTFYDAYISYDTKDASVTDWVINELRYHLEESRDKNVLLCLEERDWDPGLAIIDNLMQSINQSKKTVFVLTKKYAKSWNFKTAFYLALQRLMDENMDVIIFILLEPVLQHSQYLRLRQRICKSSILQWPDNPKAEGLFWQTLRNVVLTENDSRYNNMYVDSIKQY
As to the kind of experiment: TLR8 inhibition reporter assay (HEK-Blue cells, SEAP reporter, R848 stimulation). The note with it: HEK-Blue cells overexpressing human TLR8, SEAP reporter, R848 15.9 μM; read-out: TLR8 IC50. Put shortly:
as §1

As a reminder, the IC50 is the concentration that gives 50% inhibition. Regarding `Cc1cc(-c2[nH]c3sc(C4CCN(CC(C)(C)O)CC4)nc3c2C(C)C)cn2ncnc12` [Example 18, 1-(4-(6-isopropyl-5-(8-methyl-[1,2,4]triazolo[1,5-a]pyridin-6-yl)-4H-pyrrolo[3,2-d]thiazol-2-yl)piperidin-1-yl)-2-methylpropan-2-ol], the IC50 in test [1] was 3.74 µM; in test [2] it was 5.69 nM; in test [3], 2.57 nM.

Turning to `Cc1cc(-c2[nH]c3sc(C4CCN(C(=O)CN(C)C)CC4)nc3c2C(C)C)cn2ncnc12` [Example 19, 2-(dimethylamino)-1-(4-(6-isopropyl-5-(8-methyl-[1,2,4]triazolo[1,5-a]pyridin-6-yl)-4H-pyrrolo[3,2-d]thiazol-2-yl)piperidin-1-yl)ethan-1-one], the half-maximal inhibitory concentration (IC50) in test [1] turned out to be 5.94 µM; in test [2], 1.4 nM; in test [3], 12 nM.

Take `Cc1cc(-c2[nH]c3sc(C4CCN(C5COC5)CC4)nc3c2C(C)C)cn2ncnc12` [Example 20, 6-isopropyl-5-(8-methyl-[1,2,4]triazolo[1,5-a]pyridin-6-yl)-2-(1-(oxetan-3-yl)piperidin-4-yl)-4H-pyrrolo[3,2-d]thiazole]: the concentration for half-maximal inhibition (IC50) in test [1] was determined as 16.1 µM; in test [2], 3.69 nM; in test [3] it was 8.06 nM.

With `Cc1cc(-c2[nH]c3sc(C4CCN(C(C)C)CC4)nc3c2C(C)C)cn2ncnc12` [Example 21, 6-isopropyl-2-(1-isopropylpiperidin-4-yl)-5-(8-methyl-[1,2,4]triazolo[1,5-a]pyridin-6-yl)-4H-pyrrolo[3,2-d]thiazole], the 50% inhibitory concentration (IC50) in test [1] was over 50 µM; in test [2] it was 6.89 nM; in test [3], 39 nM.

As for `Cc1cc(-c2[nH]c3sc(C4CCN(C5CCOCC5)CC4)nc3c2C(C)C)cn2ncnc12` [Example 22, 6-isopropyl-5-(8-methyl-[1,2,4]triazolo[1,5-a]pyridin-6-yl)-2-(1-(tetrahydro-2H-pyran-4-yl)piperidin-4-yl)-4H-pyrrolo[3,2-d]thiazole], the results for the half-maximal inhibitory concentration (IC50) in test [1], in test [2] and in test [3] were 4.85 µM, 1.23 nM and 0.9 nM, respectively.

Regarding `Cc1cc(-c2[nH]c3sc(C4CCN(CC5(C)COC5)CC4)nc3c2C(C)C)cn2ncnc12` [Example 23, 6-isopropyl-5-(8-methyl-[1,2,4]triazolo[1,5-a]pyridin-6-yl)-2-(1-((3-methyloxetan-3-yl)methyl)piperidin-4-yl)-4H-pyrrolo[3,2-d]thiazole], the IC50 in test [1] was 4.77 µM; in test [2], 1.27 nM; in test [3], 1.01 nM.

For the compound `Cc1cc(-c2[nH]c3sc(C4CCN(CC(=O)N(C)C)CC4)nc3c2C(C)C)cc(C)n1` [Example 24, 2-(4-(5-(2,6-dimethylpyridin-4-yl)-6-isopropyl-4H-pyrrolo[3,2-d]thiazol-2-yl)piperidin-1-yl)-N,N-dimethylacetamide], the IC50 in test [1] was 0.793 µM; in test [2], 43.4 nM; in test [3], 12.5 nM.

For the compound `Cc1cc(-c2[nH]c3sc(C4CCN(C(C)C)CC4)nc3c2C(C)C)cc(C)n1` [Example 25, 5-(2,6-dimethylpyridin-4-yl)-6-isopropyl-2-(1-isopropylpiperidin-4-yl)-4H-pyrrolo[3,2-d]thiazole], the IC50 came to 0.447 µM in test [1], 25.6 nM in test [2] and 10.3 nM in test [3].

As to `Cc1cc(-c2[nH]c3sc(C4CCN(C5CCOCC5)CC4)nc3c2C(C)C)cc(C)n1` [Example 26, 5-(2,6-dimethylpyridin-4-yl)-6-isopropyl-2-(1-(tetrahydro-2H-pyran-4-yl)piperidin-4-yl)-4H-pyrrolo[3,2-d]thiazole], the values for the IC50 in test [1], in test [2] and in test [3] were 7.21 µM, 442 nM and 413 nM, respectively.

Consider `Cc1cc(-c2[nH]c3sc(C4CCN(CC5(C)COC5)CC4)nc3c2C(C)C)cc(C)n1` [Example 27, 5-(2,6-dimethylpyridin-4-yl)-6-isopropyl-2-(1-((3-methyloxetan-3-yl)methyl)piperidin-4-yl)-4H-pyrrolo[3,2-d]thiazole], for which the IC50 was 0.388 µM in test [1], 29.7 nM in test [2] and 2.87 nM in test [3].

For `Cc1cc(-c2[nH]c3sc(C4CCN(C(=O)CN(C)C)CC4)nc3c2C(C)C)cc(C)n1` [Example 28, 2-(dimethylamino)-1-(4-(5-(2,6-dimethylpyridin-4-yl)-6-isopropyl-4H-pyrrolo[3,2-d]thiazol-2-yl)piperidin-1-yl)ethan-1-one], the half-maximal inhibitory concentration (IC50) in test [1] came to 0.645 µM; in test [2] it was 39 nM; in test [3] it was 265 nM.

`Cc1cc(-c2[nH]c3sc(C4CCN(CC(C)(C)O)CC4)nc3c2C(C)C)cc(C)n1` [Example 29, 1-(4-(5-(2,6-dimethylpyridin-4-yl)-6-isopropyl-4H-pyrrolo[3,2-d]thiazol-2-yl)piperidin-1-yl)-2-methylpropan-2-ol]: the IC50 in test [1] is 0.216 µM; in test [2], 18.4 nM; in test [3] it was 1.91 nM.
